Laboratory results published in ChEMBL document CHEMBL1201862, “PubChem BioAssay data set” (2004).
Calls of active or inactive are those of the source.

Columns and labels:
[1] = target: Ion channel NompC (Danio rerio, UniProt Q7T1G6); experiment: Fluorescence counterscreen assay for TRPML3 agonists: dose response cell-based high-throughput screening assay to identify agonists of the transient receptor potential channel N1 (TRPN1). [Related pubchem assays: 1526, 1424, 1448 ]; type: functional
[2] = target: T1, Mucolipin-3 (Homo sapiens, UniProt Q8TDD5); experiment: Dose response cell-based high-throughput screening assay for agonists of the transient receptor potential channel ML3 (TRPML3). [Related pubchem assays: 1526, 1424, 1448 ]; type: functional
T1 sequence (Q8TDD5 whole entry): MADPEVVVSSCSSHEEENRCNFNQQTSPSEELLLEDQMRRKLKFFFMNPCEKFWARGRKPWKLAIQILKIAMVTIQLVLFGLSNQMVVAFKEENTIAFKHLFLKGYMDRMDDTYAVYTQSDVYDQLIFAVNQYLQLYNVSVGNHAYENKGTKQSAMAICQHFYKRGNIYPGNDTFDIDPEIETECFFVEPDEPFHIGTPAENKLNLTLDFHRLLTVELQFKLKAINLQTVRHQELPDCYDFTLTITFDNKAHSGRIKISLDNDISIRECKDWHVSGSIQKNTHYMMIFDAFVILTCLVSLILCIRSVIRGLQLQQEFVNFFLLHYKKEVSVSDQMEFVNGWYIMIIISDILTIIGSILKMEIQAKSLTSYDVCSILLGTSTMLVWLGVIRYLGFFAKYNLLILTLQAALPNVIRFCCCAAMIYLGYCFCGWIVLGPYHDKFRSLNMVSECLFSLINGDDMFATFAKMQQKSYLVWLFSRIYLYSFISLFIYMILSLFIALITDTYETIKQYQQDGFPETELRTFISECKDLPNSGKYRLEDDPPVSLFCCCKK

[3] = viability loss in THP-1 monocytes – THP-1 cells, cytotoxicity control for Vif-APOBEC3G degradation inhibitor project, dose response (AID 1117359); type: functional; conditions: THP-1
[4] = viability of PTEN-deleted HCT116 cells – cell-based, HCT116 PTEN knockout, dose response (AID 1047); type: functional;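 note: HCT116 colon tumor cells with PTEN knocked out; cells exposed to compound for 60 hours before readout; potency for loss of cell viability measured by luminescence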
[5] = viability of HCT116 lacking mutant beta-catenin – cell-based, human colon tumor, dose response (AID 1045); type: functional;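 note: HCT116 colon tumor cells with beta catenin knocked out; cells exposed to compound for 60 hours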
[6] = target: T2, Glutathione-S-transferase (Schistosoma japonicum, UniProt Q26513); experiment: GST-antibody interaction or FRET quenching – biochemical, TR-FRET, artefact control for Vif-APOBEC3G degradation inhibitor project, dose response (AID 1117362); type: functional
T2 sequence (Q26513 whole entry): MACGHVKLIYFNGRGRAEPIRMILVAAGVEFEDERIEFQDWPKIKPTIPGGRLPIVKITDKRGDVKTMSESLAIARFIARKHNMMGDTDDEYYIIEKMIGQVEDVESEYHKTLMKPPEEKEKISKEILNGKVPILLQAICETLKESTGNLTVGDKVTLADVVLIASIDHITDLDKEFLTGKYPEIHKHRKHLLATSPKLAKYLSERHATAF

[7] = target: T3, Replicative DNA helicase DnaB (Mycobacterium tuberculosis, UniProt P9WMR3); experiment: DnaB intein splicing inhibitors, dose response, biochemical, cell-free fluorescence (AID 449749); type: functional
T3 sequence (P9WMR3 whole entry): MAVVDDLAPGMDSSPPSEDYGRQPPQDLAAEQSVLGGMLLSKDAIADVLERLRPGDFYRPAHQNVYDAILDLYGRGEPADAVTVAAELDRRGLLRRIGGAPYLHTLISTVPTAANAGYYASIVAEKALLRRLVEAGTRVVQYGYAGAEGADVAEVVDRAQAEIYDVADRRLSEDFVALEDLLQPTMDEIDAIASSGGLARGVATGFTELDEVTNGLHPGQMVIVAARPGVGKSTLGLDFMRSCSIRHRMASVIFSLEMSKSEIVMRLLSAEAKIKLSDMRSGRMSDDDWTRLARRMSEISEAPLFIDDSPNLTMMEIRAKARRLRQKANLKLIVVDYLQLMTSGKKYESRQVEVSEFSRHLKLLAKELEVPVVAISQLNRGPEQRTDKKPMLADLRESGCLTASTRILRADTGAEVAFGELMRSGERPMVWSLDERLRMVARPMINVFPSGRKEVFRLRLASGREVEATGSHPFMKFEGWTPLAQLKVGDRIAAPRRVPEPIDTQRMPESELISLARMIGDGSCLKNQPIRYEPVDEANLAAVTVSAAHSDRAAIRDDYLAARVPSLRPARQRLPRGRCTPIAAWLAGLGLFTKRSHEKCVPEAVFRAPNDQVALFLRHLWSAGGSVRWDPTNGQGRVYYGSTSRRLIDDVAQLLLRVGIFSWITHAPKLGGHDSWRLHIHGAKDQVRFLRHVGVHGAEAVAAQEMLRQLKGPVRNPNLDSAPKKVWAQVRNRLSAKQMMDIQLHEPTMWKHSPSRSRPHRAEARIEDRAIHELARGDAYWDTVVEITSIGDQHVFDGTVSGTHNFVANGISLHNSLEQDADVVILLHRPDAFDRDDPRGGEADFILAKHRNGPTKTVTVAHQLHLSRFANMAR

[8] = target: T4, Protein RecA (Mycobacterium tuberculosis, UniProt P9WHJ3); experiment: Fluorescence Cell-Free Homogeneous Dose Retest to Identify Inhibitors of RecA-Intein Splicing Activity. [Related pubchem assays (depositor defined):AID2097, AID2223, AID489010, AID492950]; type: functional
T4 sequence (P9WHJ3 whole entry): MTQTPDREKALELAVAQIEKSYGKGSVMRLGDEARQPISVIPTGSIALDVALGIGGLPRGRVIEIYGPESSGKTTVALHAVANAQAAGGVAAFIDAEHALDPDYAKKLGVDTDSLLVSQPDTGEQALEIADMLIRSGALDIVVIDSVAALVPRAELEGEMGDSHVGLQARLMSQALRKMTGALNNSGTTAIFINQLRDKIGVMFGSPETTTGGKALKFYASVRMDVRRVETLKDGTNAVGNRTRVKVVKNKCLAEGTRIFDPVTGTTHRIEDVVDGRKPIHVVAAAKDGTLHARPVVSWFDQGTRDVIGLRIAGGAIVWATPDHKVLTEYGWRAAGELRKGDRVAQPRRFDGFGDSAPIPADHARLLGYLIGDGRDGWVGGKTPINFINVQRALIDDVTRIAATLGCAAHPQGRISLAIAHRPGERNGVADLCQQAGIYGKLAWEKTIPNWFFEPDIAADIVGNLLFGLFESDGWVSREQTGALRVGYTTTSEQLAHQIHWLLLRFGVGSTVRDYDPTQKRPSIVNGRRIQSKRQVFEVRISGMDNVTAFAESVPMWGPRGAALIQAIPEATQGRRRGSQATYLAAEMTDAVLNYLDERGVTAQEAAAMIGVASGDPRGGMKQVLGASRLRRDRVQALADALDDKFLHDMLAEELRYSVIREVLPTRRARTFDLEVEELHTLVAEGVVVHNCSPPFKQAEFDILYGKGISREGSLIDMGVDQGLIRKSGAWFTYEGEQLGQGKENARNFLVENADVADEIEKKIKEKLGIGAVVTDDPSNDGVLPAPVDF

[9] = target: Mitogen-activated protein kinase 10 (Homo sapiens, UniProt P53779); experiment: Dose response biochemical screening assay for inhibitors of c-Jun N-Terminal Kinase 3 (JNK3). [Related pubchem assays: 746 ]
[10] = target: Nonstructural protein 1 (Influenza A virus, UniProt Q194T2); type: functional, Influenza A virus (A/California/07/2009(H1N1))
[11] = target: T5, Histone-lysine N-methyltransferase NSD2 (Homo sapiens, UniProt O96028); type: biochemical
T5 sequence (O96028 whole entry): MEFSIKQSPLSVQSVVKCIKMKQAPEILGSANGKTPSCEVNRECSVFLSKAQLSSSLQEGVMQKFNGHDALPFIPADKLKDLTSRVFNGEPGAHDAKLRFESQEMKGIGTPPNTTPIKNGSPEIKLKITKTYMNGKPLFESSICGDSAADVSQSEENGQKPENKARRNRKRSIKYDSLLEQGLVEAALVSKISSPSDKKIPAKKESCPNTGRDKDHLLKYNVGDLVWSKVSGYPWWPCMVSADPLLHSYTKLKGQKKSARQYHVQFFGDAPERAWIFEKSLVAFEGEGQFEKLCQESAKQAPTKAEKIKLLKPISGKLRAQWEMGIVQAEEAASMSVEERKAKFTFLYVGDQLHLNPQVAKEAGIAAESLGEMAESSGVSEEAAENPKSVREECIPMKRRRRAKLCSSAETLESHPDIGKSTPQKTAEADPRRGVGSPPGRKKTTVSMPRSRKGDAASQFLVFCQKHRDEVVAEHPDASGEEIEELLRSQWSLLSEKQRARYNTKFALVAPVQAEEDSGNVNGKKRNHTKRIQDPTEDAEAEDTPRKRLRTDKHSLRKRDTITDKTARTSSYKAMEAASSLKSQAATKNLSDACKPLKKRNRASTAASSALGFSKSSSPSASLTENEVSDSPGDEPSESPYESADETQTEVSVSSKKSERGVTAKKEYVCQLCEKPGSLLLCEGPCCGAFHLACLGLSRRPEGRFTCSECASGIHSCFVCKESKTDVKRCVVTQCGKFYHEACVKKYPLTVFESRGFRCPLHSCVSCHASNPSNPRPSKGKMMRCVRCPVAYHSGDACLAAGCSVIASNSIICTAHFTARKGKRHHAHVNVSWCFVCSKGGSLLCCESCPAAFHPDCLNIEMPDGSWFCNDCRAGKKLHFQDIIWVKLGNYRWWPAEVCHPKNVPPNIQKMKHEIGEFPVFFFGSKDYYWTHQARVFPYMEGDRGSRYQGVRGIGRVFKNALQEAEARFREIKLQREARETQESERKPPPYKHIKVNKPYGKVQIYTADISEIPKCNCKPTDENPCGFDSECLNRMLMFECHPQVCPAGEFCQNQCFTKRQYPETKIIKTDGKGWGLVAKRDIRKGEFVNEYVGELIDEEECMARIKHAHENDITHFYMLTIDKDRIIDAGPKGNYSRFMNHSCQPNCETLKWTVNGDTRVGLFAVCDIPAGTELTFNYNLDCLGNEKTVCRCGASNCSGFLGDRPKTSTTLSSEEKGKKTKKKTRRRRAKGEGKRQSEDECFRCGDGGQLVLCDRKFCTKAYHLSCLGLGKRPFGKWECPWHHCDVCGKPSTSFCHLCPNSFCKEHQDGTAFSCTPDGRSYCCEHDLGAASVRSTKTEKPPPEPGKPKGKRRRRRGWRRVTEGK

[12] = target: NS3 (Hepatitis C virus, UniProt A3EZJ3); experiment: PubChem AID 2173; set-up: species or system Hepacivirus hominis
[13] = target: T6, Short transient receptor potential channel 4 (Mus musculus, UniProt Q9QUQ5); experiment: block of DAMGO-driven TRPC4 calcium entry – cell-based, HEK293 TRPC4/mu-opioid, Fluo-4 calcium, dose response (AID 434942); type: functional;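 note: potency of inhibitors blocking the TRPC4 calcium response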
T6 sequence (Q9QUQ5 whole entry): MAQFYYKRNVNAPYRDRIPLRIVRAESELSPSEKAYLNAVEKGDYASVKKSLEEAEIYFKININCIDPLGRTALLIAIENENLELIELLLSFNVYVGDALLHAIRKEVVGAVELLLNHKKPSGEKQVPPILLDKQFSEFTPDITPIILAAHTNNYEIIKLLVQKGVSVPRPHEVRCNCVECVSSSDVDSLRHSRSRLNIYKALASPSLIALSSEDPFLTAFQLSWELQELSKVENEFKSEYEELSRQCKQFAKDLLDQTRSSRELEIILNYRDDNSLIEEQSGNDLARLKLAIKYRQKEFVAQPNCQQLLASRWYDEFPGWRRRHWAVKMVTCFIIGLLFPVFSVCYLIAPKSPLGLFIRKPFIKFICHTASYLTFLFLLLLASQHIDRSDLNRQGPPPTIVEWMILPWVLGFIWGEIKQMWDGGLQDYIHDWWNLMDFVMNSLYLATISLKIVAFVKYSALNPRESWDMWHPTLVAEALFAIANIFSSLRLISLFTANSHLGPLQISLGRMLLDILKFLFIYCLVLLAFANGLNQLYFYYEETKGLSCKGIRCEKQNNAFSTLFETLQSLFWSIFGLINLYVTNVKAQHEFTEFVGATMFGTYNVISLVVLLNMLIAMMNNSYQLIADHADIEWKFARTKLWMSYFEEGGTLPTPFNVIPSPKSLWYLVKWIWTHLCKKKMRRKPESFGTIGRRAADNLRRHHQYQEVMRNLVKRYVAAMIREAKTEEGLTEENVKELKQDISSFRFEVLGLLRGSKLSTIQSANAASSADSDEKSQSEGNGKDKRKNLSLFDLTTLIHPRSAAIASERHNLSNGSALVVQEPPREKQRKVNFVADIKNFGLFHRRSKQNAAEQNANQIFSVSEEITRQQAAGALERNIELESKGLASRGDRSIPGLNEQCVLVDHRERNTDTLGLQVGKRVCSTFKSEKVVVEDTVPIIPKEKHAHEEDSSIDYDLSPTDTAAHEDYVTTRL

Ion channel NompC, sequence (Q7T1G6 whole entry): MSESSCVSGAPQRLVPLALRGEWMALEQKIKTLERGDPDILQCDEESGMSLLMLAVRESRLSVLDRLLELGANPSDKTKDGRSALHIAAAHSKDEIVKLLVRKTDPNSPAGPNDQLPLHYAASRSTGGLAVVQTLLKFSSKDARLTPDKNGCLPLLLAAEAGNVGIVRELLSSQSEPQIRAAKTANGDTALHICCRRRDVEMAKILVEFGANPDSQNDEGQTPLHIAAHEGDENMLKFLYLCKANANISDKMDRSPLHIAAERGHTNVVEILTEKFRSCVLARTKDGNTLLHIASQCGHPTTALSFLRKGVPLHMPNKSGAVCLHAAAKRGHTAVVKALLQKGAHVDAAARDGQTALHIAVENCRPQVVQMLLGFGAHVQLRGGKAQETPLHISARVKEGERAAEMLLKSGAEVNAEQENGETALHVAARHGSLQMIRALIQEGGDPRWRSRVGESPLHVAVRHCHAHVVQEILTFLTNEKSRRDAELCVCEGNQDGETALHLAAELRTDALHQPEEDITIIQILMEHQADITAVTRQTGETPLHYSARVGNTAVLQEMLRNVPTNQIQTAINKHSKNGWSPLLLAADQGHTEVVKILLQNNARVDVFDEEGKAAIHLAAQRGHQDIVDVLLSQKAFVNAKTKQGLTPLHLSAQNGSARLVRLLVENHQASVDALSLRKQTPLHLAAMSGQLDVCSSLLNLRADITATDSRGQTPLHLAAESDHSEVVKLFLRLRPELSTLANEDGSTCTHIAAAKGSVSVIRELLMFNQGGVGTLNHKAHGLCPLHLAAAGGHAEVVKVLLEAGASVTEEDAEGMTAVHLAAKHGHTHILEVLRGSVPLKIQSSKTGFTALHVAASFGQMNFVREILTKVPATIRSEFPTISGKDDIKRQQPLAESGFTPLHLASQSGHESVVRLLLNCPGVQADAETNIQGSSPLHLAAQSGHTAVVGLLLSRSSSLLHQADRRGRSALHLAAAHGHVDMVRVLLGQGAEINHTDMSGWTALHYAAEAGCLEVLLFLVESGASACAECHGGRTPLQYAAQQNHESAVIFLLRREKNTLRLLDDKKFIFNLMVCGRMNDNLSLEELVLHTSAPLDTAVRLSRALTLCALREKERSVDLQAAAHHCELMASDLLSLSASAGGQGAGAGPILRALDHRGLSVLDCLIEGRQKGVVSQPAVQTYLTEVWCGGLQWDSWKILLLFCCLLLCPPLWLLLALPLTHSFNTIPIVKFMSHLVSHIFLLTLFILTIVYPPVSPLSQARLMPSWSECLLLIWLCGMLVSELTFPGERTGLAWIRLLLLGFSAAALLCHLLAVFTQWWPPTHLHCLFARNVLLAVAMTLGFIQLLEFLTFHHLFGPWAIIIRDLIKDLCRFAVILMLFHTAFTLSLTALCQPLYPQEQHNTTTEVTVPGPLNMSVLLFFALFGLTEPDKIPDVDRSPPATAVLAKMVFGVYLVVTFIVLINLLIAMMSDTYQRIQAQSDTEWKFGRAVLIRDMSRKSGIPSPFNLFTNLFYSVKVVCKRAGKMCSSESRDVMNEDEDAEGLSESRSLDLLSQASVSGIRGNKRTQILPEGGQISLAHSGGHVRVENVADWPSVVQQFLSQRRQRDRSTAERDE
Mitogen-activated protein kinase 10, sequence (P53779 whole entry): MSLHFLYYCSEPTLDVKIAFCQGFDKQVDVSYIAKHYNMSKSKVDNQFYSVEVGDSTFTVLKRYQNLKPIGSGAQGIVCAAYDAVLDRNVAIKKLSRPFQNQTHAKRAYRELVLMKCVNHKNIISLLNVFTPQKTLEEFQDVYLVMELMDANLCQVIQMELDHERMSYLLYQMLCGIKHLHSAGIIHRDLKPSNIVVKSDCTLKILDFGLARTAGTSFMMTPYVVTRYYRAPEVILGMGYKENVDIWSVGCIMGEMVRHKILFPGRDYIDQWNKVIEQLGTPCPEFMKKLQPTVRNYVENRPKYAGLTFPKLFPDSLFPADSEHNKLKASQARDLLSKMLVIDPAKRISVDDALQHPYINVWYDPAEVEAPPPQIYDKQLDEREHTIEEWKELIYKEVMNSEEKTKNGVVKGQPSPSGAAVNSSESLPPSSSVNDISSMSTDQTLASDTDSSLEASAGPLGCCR
NS3, sequence (A3EZJ3 whole entry): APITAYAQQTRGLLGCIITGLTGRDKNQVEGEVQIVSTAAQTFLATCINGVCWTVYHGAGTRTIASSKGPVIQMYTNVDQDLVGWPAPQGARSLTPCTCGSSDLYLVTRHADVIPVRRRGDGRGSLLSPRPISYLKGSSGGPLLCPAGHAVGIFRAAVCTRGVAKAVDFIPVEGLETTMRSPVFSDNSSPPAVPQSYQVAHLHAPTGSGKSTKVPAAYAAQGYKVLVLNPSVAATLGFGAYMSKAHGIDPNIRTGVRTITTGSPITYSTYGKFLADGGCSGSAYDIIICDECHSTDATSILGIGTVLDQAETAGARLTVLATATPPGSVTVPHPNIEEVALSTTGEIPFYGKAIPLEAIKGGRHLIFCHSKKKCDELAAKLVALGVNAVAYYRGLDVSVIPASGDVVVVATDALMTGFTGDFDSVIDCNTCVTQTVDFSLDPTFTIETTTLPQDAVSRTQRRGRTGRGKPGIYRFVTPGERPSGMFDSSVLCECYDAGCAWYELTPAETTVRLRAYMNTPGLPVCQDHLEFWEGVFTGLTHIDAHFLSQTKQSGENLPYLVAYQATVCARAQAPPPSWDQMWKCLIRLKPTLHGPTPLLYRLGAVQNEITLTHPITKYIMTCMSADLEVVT
Nonstructural protein 1, sequence (Q194T2 whole entry): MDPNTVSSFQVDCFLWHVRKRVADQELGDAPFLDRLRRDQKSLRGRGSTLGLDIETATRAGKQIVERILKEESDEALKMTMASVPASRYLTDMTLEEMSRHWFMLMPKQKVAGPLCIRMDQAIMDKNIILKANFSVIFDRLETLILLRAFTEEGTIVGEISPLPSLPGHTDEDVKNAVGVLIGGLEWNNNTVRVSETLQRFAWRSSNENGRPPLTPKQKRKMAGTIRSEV

With `O=S(=O)(c1ccc(Cl)cc1Br)N1CCCCC1` the EC50 [1] was > 29.9 µM (not active) and the EC50 [2] was > 29.9 µM (not active).
In the case of `O=C(Nc1nc(-c2ccc3ccccc3c2)cs1)C1CCN(S(=O)(=O)c2cccs2)CC1`, the EC50 [1] was > 29.9 µM (not active) and the EC50 [2] was 14.2 µM (not active).
With `CC[n+]1c(/C=C2\C=C(C)CC(C)(C)C2)sc2ccccc21` the CC50 [3] was 4.22 µM (active), the EC50 [4] was 11.7 µM (active) and the EC50 [5] was 9.81 µM (active). The IC50 [6] was > 100 µM (active), the AC50 [7] was > 380 µM (inactive) and the EC50 [8] was 27.3 µM (active).
For `Cc1[nH]c(=O)[nH]c1C(=O)CCCCC(=O)OCC(=O)Nc1ccccn1`, the IC50 [9] was > 93.1 µM (not active), the IC50 [10] was 1.98 µM (active) and the AC50 [11] was 1.26 µM (active).
In the case of `CCCOc1ccc(-c2nc(SCc3ccccc3)[nH]c(=O)c2C#N)cc1OC`, the IC50 [12] was 1.72 µM (active), the EC50 [13] was 4.73 µM (active) and the AC50 [11] was > 20 µM (inactive).
With `COc1ccc(S(=O)(=O)NC2CCCC2)c(Cl)c1Cl` the EC50 [1] was > 29.9 µM (not active) and the EC50 [2] was 3.55 µM (active).
For `CC1CCc2nc(N)c(C#N)c(-c3ccncc3)c2C1` (centres undefined), the IC50 [9] was > 93.1 µM (not active).
